Results: patent EP1171440B1, “SUBSTITUTED-3-CYANO-[1.7],[1.5], AND [1.8]-NAPHTHYRIDINE INHIBITORS OF TYROSINE KINASES” (Wyeth Holdings Corporation, priority 1999, dated 2000)
≈ marks a conversion by molar mass, not a printed value. Like-named read-outs stand apart in the source and are kept apart here.

Columns and labels:
MCF7 = assay: Inhibition of Cancer Cell Growth as Measured by Cell Number (Sulforhodamine B); type: cell-based; conditions: Homo sapiens, 48 hours exposure
Experimental: (§1) Human tumor cell lines were plated in 96-well plates (250 µl/well, 1-6 x 10^4 cells/ml) in RPMI 1640 medium, containing 5% FBS (Fetal Bovine Serum). […] After 48 hours exposure to test compounds, cells were fixed with trichloroacetic acid, and stained with Sulforhodamine B. After washing with trichloroacetic acid, bound dye was solubilized in 10 mM Tris base and optical density was determined using a plate reader. Under conditions of the assay the optical density is proportional to the number of cells in the well. IC50s (concentrations causing 50% inhibition of cell growth) were determined from the growth inhibition plots. The test procedure is described in details by Philip Skehan et. al, J.Natl. Canc. Inst., 82, 1107-1112 (1990). […] Information about some of the cell lines used in these test procedures is available from the American […]: Cell Lines and Hybridomas, 1994 Reference Guide, 8th Edition. The Her2Neu cell line is a 3T3 line that has bbeen transfected with Her2 receptor kinase.

SW620 = assay: as above; type: cell-based, Human
Experimental: (§2) After 48 hours exposure to test compounds, cells were fixed with trichloroacetic acid, and stained with Sulforhodamine B. After washing with trichloroacetic acid, bound dye was solubilized in 10 mM Tris base and optical density was determined using a plate reader. Under conditions of the assay the optical density is proportional to the number of cells in the well. […] The test procedure is described in details by Philip Skehan et. al, J.Natl. Canc. […] The Her2Neu cell line is a 3T3 line that has bbeen transfected with Her2 receptor kinase.

SKBR3 = assay: as above; type: cell-based, Human
Experimental: as §2

A431 = assay: as above; type: cell-based, Human; conditions: 48 hours exposure
Experimental: as §2

LOX = assay: as above; type: cell-based, Human; conditions: 48 hours exposure
Experimental: as §2

[1] = target: T1, EGF-R Kinase (recombinant enzyme) (Homo sapiens, UniProt P00533); assay: Inhibition of Epidermal Growth Factor Receptor Kinase (EGF-R) using recombinant enzyme, RR-SRC peptide phosphorylation with 33P-ATP; type: biochemical
T1 construct: containing the EGFR cDNA encoding amino acids 645 - 1186 preceded by Met-Ala-(His)6; made in house; host or cells: Sf9 insect cells infected with recombinant baculovirus vHcEGFR52
T1 sequence (P00533 669-1210): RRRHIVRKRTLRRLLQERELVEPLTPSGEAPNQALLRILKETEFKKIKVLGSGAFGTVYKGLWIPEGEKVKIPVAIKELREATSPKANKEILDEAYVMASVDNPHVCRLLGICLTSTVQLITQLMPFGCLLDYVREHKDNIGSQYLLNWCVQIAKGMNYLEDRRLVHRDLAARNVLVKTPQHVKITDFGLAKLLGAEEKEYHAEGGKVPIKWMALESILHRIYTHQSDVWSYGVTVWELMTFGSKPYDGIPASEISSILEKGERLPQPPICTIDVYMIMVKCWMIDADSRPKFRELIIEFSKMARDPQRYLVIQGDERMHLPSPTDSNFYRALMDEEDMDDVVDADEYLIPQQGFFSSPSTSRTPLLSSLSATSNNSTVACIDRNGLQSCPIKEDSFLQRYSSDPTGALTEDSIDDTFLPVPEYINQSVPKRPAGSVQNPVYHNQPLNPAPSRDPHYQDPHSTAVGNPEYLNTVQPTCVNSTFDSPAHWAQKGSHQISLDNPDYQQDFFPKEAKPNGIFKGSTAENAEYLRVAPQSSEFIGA
Experimental: Representative test compounds were evaluated for their ability to inhibit the phosphorylation of the tyrosine residue of a peptide substrate catalyzed by the enzyme epidermal growth factor receptor kinase. […] The enzyme used in this assay is the His-tagged cytoplasmic domain of EGFR. A recombinant baculovirus (vHcEGFR52) was constructed containing the EGFR cDNA encoding amino acids 645 - 1186 preceded by Met-Ala-(His)6 . Sf9 cells in 100 mm plates were infected at an moi of 10 pfu/cell and cells were harvested 48 h post infection. A cytoplasmic extract was prepared using 1% Triton X-100 and applied to Ni-NTA column. After washing the column with 20 mM imidazole, HcEGFR was eluted with 250 mM imidazole (in 50 mM Na2HPO4, pH 8.0, 300 mM NaCl). Fractions collected were dialyzed against 10 mM HEPES, pH 7.0, 50 mM NaCl, 10% glycerol, 1ug/mL antipain and leupeptin and 0.1 mM Pefabloc SC. The protein was frozen in dry ice/methanol and stored -70° C.
Test compounds were made into 10 mg/mL stock solutions in 100% dimethylsulfoxide (DMSO). Prior to experiment, stock solutions were diluted to 500 uM with 100% DMSO and then serially diluted to the desired concentration with HEPES buffer (30 mM HEPES pH 7.4).
For the enzyme reaction, 10 uL of each inhibitor (at various concentrations) were added to each well of a 96-well plate. To this was added 3 uL of enzyme (1:10 dilution in 10mM HEPES, pH 7.4 for final conc. of 1:120). This was allowed to sit for 10 min on ice and was followed by the addition of 5 ul peptide (80 uM final conc.), 10ul of 4X Buffer (Table A), 0.25 uL ^33P-ATP and 12 uL H2O. The reaction was allowed to run for 90 min at room temperature and was followed by spotting the entire volume on to precut P81 filter papers. The filter discs were washed 2X with 0.5% phosphoric acid and radioactivity was measured using a liquid scintillation counter. Table A
The IC50 is the concentration of test compound needed to reduce the total amount of phosphorylated substrate by 50%. The % inhibition of the test compound was determined for at least three different concentrations and the IC50 value was evaluated from the dose response curve. […] CPM(control) is in units of counts per minute and was a number expressing the amount of radiolabeled ATP (γ-^33P) incorporated into the RR-SRC peptide substrate by the enzyme after 90 minutes at room temperature in the absence of test compound as measured by liquid scintillation counting. The CPM values were corrected for the background counts produced by ATP in the absence of the enzymatic reaction. Where it was possible to determine an IC50 value, this is reported in TABLE 1 otherwise the % inhibition at 0.5 µM concentration of test compound is shown in TABLE 1.

A2780S = assay: Inhibition of Cancer Cell Growth as Measured by Cell Number (Sulforhodamine B); type: cell-based, Human; conditions: 48 hours exposure
Experimental: as §2

MDA435 = assay: as above; type: cell-based, Human; conditions: 48 hours exposure
Experimental: as §2

A2780DDP = assay: as above; type: cell-based, Human; conditions: 48 hours exposure
Experimental: as §2

3T3 = assay: as above; type: cell-based; conditions: 48 hours exposure
Experimental: as §1

[2] = target: Epithelial Cell Kinase (ECK) (Homo sapiens, UniProt P29317); assay: Inhibition of Epithelial Cell Kinase (ECK), nonradioactive peptide phosphorylation plate assay; type: biochemical; conditions: pH 7.2; multiple entries = tested multiple times
Chain of Epithelial Cell Kinase (ECK) (P29317 24-976, species assumed): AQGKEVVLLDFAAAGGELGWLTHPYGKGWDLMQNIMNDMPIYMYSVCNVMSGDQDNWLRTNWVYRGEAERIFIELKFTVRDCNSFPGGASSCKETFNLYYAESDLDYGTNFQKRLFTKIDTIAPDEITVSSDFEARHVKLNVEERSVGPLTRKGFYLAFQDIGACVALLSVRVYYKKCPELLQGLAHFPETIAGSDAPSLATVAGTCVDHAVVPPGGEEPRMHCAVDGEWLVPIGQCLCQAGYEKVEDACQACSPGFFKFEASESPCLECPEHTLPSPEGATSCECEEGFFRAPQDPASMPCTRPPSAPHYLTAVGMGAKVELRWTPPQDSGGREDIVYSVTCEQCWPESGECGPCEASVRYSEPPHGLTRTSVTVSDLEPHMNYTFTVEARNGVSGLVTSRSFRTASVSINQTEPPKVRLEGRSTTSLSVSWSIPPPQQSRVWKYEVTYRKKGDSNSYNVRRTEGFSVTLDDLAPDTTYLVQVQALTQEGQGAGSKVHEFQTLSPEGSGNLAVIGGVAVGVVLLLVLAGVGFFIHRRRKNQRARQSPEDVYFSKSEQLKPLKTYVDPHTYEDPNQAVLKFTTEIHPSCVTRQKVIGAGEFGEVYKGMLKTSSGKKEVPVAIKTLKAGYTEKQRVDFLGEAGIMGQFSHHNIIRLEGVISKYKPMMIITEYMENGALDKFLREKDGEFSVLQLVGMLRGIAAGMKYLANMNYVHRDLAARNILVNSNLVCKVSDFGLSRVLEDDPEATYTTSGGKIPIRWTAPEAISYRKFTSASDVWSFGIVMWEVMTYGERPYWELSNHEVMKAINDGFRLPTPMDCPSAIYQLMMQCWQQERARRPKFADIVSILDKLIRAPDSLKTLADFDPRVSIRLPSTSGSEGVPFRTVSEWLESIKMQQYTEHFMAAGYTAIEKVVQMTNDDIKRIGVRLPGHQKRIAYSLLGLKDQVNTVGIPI
Experimental: In this standard pharmacological test procedure, a biotinylated peptide substrate is first immobilized on neutravidin-coated microtiter plates. The test drug, the Epithelial Cell Kinase (ECK), Mg^++, sodium vanadate (a protein tyrosine phosphatase inhibitor), and an appropriate buffer to maintain pH (7.2) are then added to the immobilized substrate-containing microtiter wells. ATP is then added to initiate phosphorylation. After incubation, the assay plates are washed with a suitable buffer leaving behind phosphorylated peptide which is exposed to horse radish peroxidase (HRP)-conjugated anti-phosphotyrosine monoclonal antibody. The antibody-treated plates are washed again and the HRP activity in individual wells is quantified as a reflection of degree of substrate phosphorylation. This nonradioactive format was used to identify inhibitors of ECK tyrosine kinase activity where the IC50 is the concentration of drug that inhibits substrate phosphorylation by 50%. Multiple entries for a given compound indication it was tested multiple times.

[3] = target: Mitogen Activated Protein Kinase (Mek-Erk) (Homo sapiens, UniProt P28482+Q02750); assay: Mitogen Activated Protein Kinase (MAPK) coupled MEK 1 / ERK2 assay; type: biochemical; conditions: separate entries = evaluated more than one time
Chain of Mitogen Activated Protein Kinase (Mek-Erk) (P28482 2-360): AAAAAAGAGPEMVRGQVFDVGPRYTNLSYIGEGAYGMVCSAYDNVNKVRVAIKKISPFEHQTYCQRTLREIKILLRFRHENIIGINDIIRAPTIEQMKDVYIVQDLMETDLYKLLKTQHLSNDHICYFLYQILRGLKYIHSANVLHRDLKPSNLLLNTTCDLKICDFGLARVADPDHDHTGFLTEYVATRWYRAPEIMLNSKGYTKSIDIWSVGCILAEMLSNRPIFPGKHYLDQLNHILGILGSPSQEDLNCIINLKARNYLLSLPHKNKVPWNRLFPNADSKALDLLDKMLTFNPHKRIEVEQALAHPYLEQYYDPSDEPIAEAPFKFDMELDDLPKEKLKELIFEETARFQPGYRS
Chain of Mitogen Activated Protein Kinase (Mek-Erk) (Q02750 whole entry): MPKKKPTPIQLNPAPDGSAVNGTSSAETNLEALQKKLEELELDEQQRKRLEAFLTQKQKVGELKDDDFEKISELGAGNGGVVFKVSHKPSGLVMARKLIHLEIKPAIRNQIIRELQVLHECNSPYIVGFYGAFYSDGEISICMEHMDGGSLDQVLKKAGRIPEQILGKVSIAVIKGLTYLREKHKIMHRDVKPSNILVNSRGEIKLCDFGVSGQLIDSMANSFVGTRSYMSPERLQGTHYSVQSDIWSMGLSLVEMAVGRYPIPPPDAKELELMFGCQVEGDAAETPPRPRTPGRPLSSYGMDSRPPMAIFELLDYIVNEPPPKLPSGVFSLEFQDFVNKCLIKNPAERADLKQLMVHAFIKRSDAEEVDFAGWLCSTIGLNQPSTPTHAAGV
Experimental: To evaluate inhibitors of the MAP (mitogen activated protein) kinase a two component coupled standard pharmacological test procedure, which measures phosphorylation of a serine/threonine residue in an appropriate sequence in the substrate in the presence and absence of a putative inhibitor, was used. Recombinant human MEK 1 (MAPKK) was first used to activate recombinant human ERK2 (MAPK) and the activated MAPK (ERK) was incubated with substrate (MBP peptide or MYC peptide) in the presence of ATP, Mg^+2 and radiolabeled ^33P ATP. The phosphorylated peptide was captured on a P 81 phosphocellulose filter (paper filter or embedded in microtiter plate) washed and counted by scintillation methods.
The peptide substrates used in the assay are MBP, peptide substrate ([…]), or synthetic Myc substrate, ([…]•5 TFA. The recombinant enzymes used were prepared as GST fusion proteins of human ERK 2 and human MEK 1. Inhibitor samples were prepared as 10X stocks in 10% DMSO and an appropriate aliquot was used to deliver either 10 ug/ml for a single point screening dose or 100, 10, 1, and 0.1 uM final concentration for a dose response curve. Final DMSO concentrations were less than or equal to 1%.
The reaction was run as follows in 50 mM Tris kinase buffer, pH 7.4 in a reaction volume of 50 ul. The appropriate volume of kinase buffer and inhibitor sample was added to the tube. Appropriate dilution of enzyme was delivered to give 2-5 ug recombinant MAPK (Erk ) per tube. The inhibitor was incubated with MAPK (Erk) for 30 min at 0 deg. C. Recombinant Mek (MAPKK) ( 0.5-2.5 ug) or fully activated Mek (0.05-0.1 units) was added to activate the Erk and incubated for 30 min at 30° C. Then substrate and gamma ^33P ATP was were added to give a final concentration of 0.5- 1 mM MBPP or 250-500 uM Myc; 0.2-0.5 uCi gamma ^33P ATP/tube; 50 µM ATP final concentration. Samples were incubated at 30°C for 30 minutes and the reaction was stopped by adding 25 µl of ice cold 10 %TCA. After samples were chilled on ice for 30 min, 20 µl of sample was transferred onto P 81 phosphocellulose filter paper or appropriate MTP with embedded P 81 filter. Filter papers or MTP were washed 2 times with a large volume of 1% acetic acid, then 2 times with water. The filters or MTP were briefly air dried before addition of scintillant and samples were counted in the appropriate scintillation counter set up for reading ^33P isotope. Samples included a positive control (activated enzyme plus substrate); a no enzyme control; a no substrate control; samples with different concentrations of putative inhibitor; and samples with reference inhibitors (other active compounds or non-specific inhibitors such as staurosporine or K252 B).
The raw data was captured as cpm. Sample replicates were averaged and corrected for background count. Mean cpm data was tabulated by group and % inhibition by a test compound was calculated as (corrected cpm control- corrected. cpm sample/control) X 100 = % inhibition. If several concentrations of inhibitor were tested, IC50 values (the concentration which gives 50% inhibition) were determined graphically from the dose response curve for % inhibition or by an appropriate computer program. The results obtained for representative compounds of this invention are listed in TABLE 3 where there may be separate entries for the same compound; this is an indication that the compound was evaluated more than one time.

[4] = Homo sapiens, SW-620, 48 hours exposure, read-out: IC50
[5] = Homo sapiens, SK-BR-3, 48 hours exposure, read-out: IC50
[6] = Homo sapiens, A-431, 48 h, read-out: IC50
[7] = recombinant His-tagged cytoplasmic domain of EGFR, RR-SRC peptide, 90 min at room temperature, read-out: IC50
[8] = Homo sapiens, MDA435, 48 h, read-out: IC50
[9] = 0.5 µM concentration of test compound, read-out: % Inhibition @ 0.5
[10] = Homo sapiens, 48 h, read-out: IC50

Molecule	IC50 (SW620; [4]) [µg/mL]	IC50 (SKBR3; [5]) [µg/mL]	IC50 (A431; [6]) [µg/mL]	IC50 [1, 7] [nM]	IC50 [2] [nM]	IC50 [3] [nM]	further results
1-[4-(3-Bromo-phenylamino)-3-cyano-[1.7]naphthyridin-6-yl]-4-dimethylamino- pyridinium fluoride [Example 65]							IC50 (SW620; 48 hours exposure): 42 µg/mL; IC50 (A2780S): 31 µg/mL; IC50 (MDA435): 47 µg/mL; IC50 (SKBR3; 48 hours exposure): 41 µg/mL; IC50 (A2780DDP): 52 µg/mL; IC50 (A431): 59 µg/mL; IC50 (LOX): 56 µg/mL
N#Cc1cnc2cnc(F)cc2c1Nc1ccc(F)c(Cl)c1 [Example 69, 4-(3-Chloro-4-fluoro-phenylamino)-6-fluoro-[1.7]naphthyridine-3-carbonitrile]					> 3100		
Cc1ccc(Nc2c(C#N)cnc3ccc(OCCCN4CCOCC4)nc23)cc1O [Example 43, 4-(3-Hydroxy-4-methyl-phenylamino)-6-(3-morpholin-4-yl-propoxy)-[1.5]naphthyridine-3-carbonitrile]				1000	> 2300	> 100000	inhibition at 0.5 µM [1, 9]: 37.1%
N#Cc1cnc2ccc(OCCCN3CCOCC3)nc2c1Nc1cccc(Br)c1 [Example 44, 4-(3-Bromo-phenylamino)-6-(3-morpholin-4-yl-propoxy)-[1.5]naphthyridine-3-carbonitrile]				1000	> 2100	> 100000	inhibition at 0.5 µM [1, 9]: 25.4%
CC#CC(=O)Nc1cnc2ncc(C#N)c(Nc3cccc(Br)c3)c2c1 [Example 24, But-2-ynoic acid [5-(3-bromo-phenylamino)-6-cyano-[1.8]-naphthyridin-3-yl]-amide]				100	30	> 100000	

Now from value to molecule, other results behind:

IC50 (SW620; [4]) [µg/mL]	IC50 (SKBR3; [5]) [µg/mL]	IC50 (A431; [6]) [µg/mL]	Molecule	IC50 [1, 7] [nM]	IC50 [2] [nM]	IC50 [3] [nM]	further results
4.62 (≈ 13 µM)	1.88 (≈ 5.3 µM)	0.31 (≈ 0.875 µM)	CNc1cc2c(Nc3cccc(Br)c3)c(C#N)cnc2cn1 [Example 64, 4-(3-Bromo-phenylamino)-6-methylamino-[1.7]naphthyridine-3-carbonitrile]	6			IC50 (MCF7): 3.87 µg/mL (≈ 10.9 µM); IC50 (A431): 0.209 µg/mL (≈ 0.59 µM); IC50 (LOX; Homo sapiens, read-out: IC50): 3.6 µg/mL (≈ 10.2 µM)
0.356 (≈ 0.789 µM)	0.0357 (≈ 0.079 µM)	0.088 (≈ 0.195 µM)	CN(C)CC=CC(=O)Nc1cc2c(Nc3cccc(Br)c3)c(C#N)cnc2cn1 [Example 62, 4-Dimethylamino-but-2-enoic acid, [4-(3-bromo-phenylamino)-3-cyano-[1.7]naphthyridin-6-yl]-amide]				IC50 (3T3): 0.2716 µg/mL (≈ 0.602 µM); IC50 (3T3; Mus musculus, NIH3T3, 48 h, read-out: IC50): 0.373 µg/mL (≈ 0.826 µM); IC50 (MDA435; [8]): 0.464 µg/mL (≈ 1.03 µM); IC50 [1]: 5 nM; inhibition at 0.5 µM ([1]; read-out: % Inhibition @ 0.5 (µM)): 97.4%
41 (≈ 90.4 µM)	0.4 (≈ 0.882 µM)	0.5 (≈ 1.1 µM)	N#Cc1cnc2cnc(NCCN3CCOCC3)cc2c1Nc1cccc(Br)c1 [Example 63, 4-(3-Bromo-phenylamino)-6-(2-morpholino-4-yl-ethylamino)-[1.7]naphthyridine-3-carbonitrile]	1000			IC50 (A2780S; [10]): 0.5 µg/mL (≈ 1.1 µM); IC50 (MDA435; [8]): 49 µg/mL (≈ 108 µM); IC50 (A2780DDP; [10]): 0.8 µg/mL (≈ 1.76 µM); IC50 (LOX; Homo sapiens, read-out: IC50): 57 µg/mL (≈ 126 µM)
